Test results as given in PMC4145680 (mBio, 2014).

Molecular target: E. coli SQR (pFAS, SdhABCD^+) (Escherichia coli, UniProt P0AC41)
Test: PES-DCIP assay and Clark O2 electrode, IMVs
Format: biochemical
Details: pH 7.5 (50 mM MOPS)

Sequence of E. coli SQR (pFAS, SdhABCD^+) (P0AC41 whole entry): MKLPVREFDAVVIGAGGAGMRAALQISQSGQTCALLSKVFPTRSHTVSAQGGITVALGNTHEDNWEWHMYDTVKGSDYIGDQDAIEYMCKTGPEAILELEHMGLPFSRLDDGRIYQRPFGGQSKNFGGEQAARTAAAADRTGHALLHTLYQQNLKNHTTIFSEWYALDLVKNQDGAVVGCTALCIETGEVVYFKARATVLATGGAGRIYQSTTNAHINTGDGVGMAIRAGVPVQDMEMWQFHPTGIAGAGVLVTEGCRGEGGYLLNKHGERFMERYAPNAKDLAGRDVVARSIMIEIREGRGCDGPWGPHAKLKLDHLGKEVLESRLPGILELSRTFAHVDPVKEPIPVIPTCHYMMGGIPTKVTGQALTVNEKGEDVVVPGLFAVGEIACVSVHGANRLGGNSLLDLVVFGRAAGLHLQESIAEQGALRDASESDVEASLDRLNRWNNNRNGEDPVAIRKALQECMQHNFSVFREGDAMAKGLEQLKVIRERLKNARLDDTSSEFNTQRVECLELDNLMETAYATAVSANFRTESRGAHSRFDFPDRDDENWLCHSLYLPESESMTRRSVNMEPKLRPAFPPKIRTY
Sequence of E. coli SQR (pFAS, SdhABCD^+) (P07014 whole entry partner): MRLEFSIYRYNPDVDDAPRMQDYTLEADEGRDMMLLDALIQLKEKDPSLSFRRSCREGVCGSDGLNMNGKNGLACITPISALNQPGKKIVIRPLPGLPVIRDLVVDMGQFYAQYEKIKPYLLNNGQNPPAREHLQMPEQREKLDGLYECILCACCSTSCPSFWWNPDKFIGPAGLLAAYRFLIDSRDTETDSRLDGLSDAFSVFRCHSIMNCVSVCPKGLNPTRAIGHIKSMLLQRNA
Sequence of E. coli SQR (pFAS, SdhABCD^+) (P69054 whole entry partner): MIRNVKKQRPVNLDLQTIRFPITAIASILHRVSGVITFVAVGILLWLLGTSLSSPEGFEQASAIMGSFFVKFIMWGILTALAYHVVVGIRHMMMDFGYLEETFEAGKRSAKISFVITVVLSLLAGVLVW
Sequence of E. coli SQR (pFAS, SdhABCD^+) (P0AC44 whole entry partner): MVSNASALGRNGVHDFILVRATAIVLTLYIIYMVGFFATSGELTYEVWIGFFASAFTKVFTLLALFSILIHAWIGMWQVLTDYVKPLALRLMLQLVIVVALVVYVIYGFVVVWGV

Structure (SMILES): O=C(O)CCC(=O)O [succinate]
- PES-DCIP assay and Clark O2 electrode, IMVs: E. coli strains overexpressing either the SQR operon (pFAS, SdhABCD^+)
